US8808716B2, “Topical foam composition” (Stiefel Research Australia Pty Ltd, priority 2009, dated 2014)

Experiment: accelerated stability study (HPLC) of compatibility of tazarotene with surfactants
Type: physicochemical
Conditions: 50° C.; in hydrophilic ethoxylated fatty alcohol ether surfactant such as Ceteareth-12, in contrast to various lipophilic surfactants
Procedure: An accelerated stability study (using HPLC) was conducted at 50° C. to measure the compatibility of tazarotene with various surfactants.

- tazarotene stability (compatibility with surfactant): most stable
SMILES: CCOC(=O)c1ccc(C#Cc2ccc3c(c2)C(C)(C)CCS3)nc1 [tazarotene]
